Reference: patent US12581252B2, “Substituted pyrrolo[3,4-b]pyridines as PI3K-α inhibitors” (Relay Therapeutics, Inc., priority 2020, dated 2026)

target: H1047R PIK3CA enzyme (Homo sapiens, UniProt P42336, H1047R); test: ADP-Glo Biochemical PIK3CA Kinase Assay
Protocol: Compounds to be assayed were plated in 16 doses of 1:2 serial dilutions (20 nL volume each well) on a 1536-well plate, and the plate warmed to room temperature. […] To the well was added 1 μL of 200 μM ATP and 20 μM of diC8-PIP2 in Substrate Assay Buffer (50 mM HEPES pH7.4, 50 mM NaCl, 5 mM DTT and 0.03% CHAPS) to start the reaction, and the plate was shaken for 10 seconds, then spun briefly at 1500 rpm, and then incubated for 60 minutes at room temperature. The reaction was stopped by adding 2 μL of ADP-Glo reagent (Promega), and spinning briefly at 1500 rpm, and then incubating for 40 minutes. ADP-Glo Detection reagent (Promega) was added and the plate spun briefly at 1500 rpm, then incubated for 30 minutes.

Chain of H1047R PIK3CA enzyme (P42336 whole entry H1047R): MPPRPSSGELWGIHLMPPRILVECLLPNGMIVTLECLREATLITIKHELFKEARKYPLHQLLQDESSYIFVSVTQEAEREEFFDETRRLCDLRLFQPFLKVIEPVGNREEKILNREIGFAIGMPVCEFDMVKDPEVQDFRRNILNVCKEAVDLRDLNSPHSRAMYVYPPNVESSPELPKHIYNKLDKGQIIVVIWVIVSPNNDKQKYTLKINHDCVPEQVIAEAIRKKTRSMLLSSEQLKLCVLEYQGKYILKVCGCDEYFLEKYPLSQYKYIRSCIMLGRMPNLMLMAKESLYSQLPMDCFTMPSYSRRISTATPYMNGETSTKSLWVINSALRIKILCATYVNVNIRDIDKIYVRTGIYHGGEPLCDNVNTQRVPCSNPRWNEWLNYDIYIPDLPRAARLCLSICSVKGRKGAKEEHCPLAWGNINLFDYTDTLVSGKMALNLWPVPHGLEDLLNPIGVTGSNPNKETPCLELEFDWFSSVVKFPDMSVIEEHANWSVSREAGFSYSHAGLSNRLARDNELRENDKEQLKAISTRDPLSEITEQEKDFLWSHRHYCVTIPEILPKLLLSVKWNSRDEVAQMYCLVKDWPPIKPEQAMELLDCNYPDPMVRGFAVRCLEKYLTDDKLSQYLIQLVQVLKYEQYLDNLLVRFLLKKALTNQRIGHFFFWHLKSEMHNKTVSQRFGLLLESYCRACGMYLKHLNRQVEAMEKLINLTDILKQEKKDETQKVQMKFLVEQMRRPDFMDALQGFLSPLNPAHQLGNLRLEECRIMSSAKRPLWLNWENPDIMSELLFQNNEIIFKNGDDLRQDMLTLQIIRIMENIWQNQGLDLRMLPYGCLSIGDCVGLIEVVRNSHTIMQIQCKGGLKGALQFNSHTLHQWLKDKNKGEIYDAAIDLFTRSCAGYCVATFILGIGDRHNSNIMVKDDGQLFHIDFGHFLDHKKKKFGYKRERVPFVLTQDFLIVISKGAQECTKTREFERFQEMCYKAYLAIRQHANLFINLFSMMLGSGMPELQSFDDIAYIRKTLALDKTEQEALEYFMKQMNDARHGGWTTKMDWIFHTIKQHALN
Chain of H1047R PIK3CA enzyme (P27986 whole entry partner): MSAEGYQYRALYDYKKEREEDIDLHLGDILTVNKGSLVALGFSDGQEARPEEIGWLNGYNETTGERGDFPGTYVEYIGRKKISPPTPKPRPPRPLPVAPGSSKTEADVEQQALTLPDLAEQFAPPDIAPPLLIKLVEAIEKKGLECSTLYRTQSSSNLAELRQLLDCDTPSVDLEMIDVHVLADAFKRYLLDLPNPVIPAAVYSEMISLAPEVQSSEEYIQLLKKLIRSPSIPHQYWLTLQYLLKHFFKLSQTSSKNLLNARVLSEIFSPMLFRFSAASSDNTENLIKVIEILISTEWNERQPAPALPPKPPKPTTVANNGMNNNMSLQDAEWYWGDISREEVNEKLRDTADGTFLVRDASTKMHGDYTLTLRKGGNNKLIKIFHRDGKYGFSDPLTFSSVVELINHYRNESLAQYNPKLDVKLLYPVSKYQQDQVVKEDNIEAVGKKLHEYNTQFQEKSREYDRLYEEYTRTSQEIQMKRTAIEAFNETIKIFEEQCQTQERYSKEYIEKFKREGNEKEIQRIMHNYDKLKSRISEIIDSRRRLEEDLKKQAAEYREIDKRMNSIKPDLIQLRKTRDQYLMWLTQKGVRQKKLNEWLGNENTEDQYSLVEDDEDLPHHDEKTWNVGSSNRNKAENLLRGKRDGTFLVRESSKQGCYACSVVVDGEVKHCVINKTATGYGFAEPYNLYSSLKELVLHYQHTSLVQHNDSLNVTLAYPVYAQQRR

SMILES	IC50 [µM]
N#Cc1cnc2ccc(-c3cc(NC(=O)c4cc(F)cc(C(F)(F)F)c4)c4c(c3)C(=O)NC4c3cc(F)ccc3Cl)cn12 (stereo not drawn) [Compound I-1410]	≤ 0.1
N#Cc1cc(NC(=O)N2C[C@H](O)c3cc(F)ccc32)c2c(c1)C(=O)N[C@H]2c1cc(F)ccc1Cl (single isomer, unassigned) [Compound I-2491]	0.1 to 0.5
CC(C)(O)Cc1cc(F)cc(C(=O)Nc2cc(CC(C)(C)O)cc3c2C(c2cc(F)ccc2Cl)NC3=O)c1 (stereo not drawn) [Compound I-696]	10 to 100
O=C1NC(c2cccc(F)c2F)c2c(NC(=O)c3nsc4ccccc34)ccnc21 (stereo not drawn) [Compound I-175]	0.5 to 1
O=C(Nc1cc(Cc2ccc3c(c2)CNC3=O)cc2c1[C@@H](c1cc(F)ccc1Cl)NC2=O)c1cc(F)cc(C(F)(F)F)c1 (stereo in doubt) [Compound I-1613]	0.1 to 0.5
O=C(Nc1cc(Br)cc2c1C(c1cc(F)ccc1Cl)NC2=O)Oc1ccc2c(n1)NCC2 (stereo not drawn) [Compound I-1206]	10 to 100
Cn1cc(C#Cc2cc(NC(=O)c3cc(F)cc(C(F)(F)F)c3)c3c(c2)C(=O)NC3c2cc(F)ccc2Cl)cn1 (stereo not drawn) [Compound I-1155]	≤ 0.1
O=C(Nc1cc(-c2cc3ncnn3cc2F)cc2c1[C@H](c1cc(F)ccc1Cl)NC2=O)c1cc(F)cc(C(F)(F)F)c1 [Compound I-1868]	≤ 0.1
O=C(Nc1ccc(C(F)(F)F)cc1)c1cccc2c1C(c1cc(F)ccc1Cl)NC2=O (stereo not drawn) [Compound I-2316]	10 to 100
Cn1ccc2c(C(=O)Nc3cc(Br)cc4c3C(c3cc(F)ccc3Cl)NC4=O)cccc21 (stereo not drawn) [Compound I-670]	10 to 100
O=C(Nc1cc(Br)cc2c1C(c1cc(F)ccc1Cl)NC2=O)c1cc(C(F)(F)F)ccc1F (stereo not drawn) [Compound I-515]	1 to 10
O=C(Nc1cc(-c2ccc3ncnn3c2)cc2c1[C@H](c1cc(F)ccc1Cl)NC2=O)c1cc(F)cc(Cl)c1 (stereo in doubt) [Compound I-1165]	≤ 0.1
Cn1cc(-c2cc(NC(=O)c3nsc4ccccc34)c3c(n2)C(=O)NC3c2ccccc2Cl)cn1 (stereo not drawn) [Compound I-108]	0.1 to 0.5
O=C(Nc1cc(Br)cc2c1C(c1cc(F)ccc1Cl)NC2=O)c1ccccc1F (stereo not drawn) [Compound I-466]	10 to 100
O=C1NC(c2ccc3ccccc3c2)c2c(NC(=O)c3nsc4ccccc34)cccc21 (stereo not drawn) [Compound I-392]	10 to 100
O=C(Nc1cc(-c2ccn3ncnc3c2F)cc2c1C(c1cc(F)ccc1Cl)NC2=O)c1cc(F)cc(C(F)(F)F)c1 (stereo not drawn) [Compound I-1698]	≤ 0.1
N#Cc1ccc(C(=O)Nc2cc(Br)cc3c2C(c2cc(F)ccc2Cl)NC3=O)cc1 (stereo not drawn) [Compound I-517]	10 to 100
O=C1NC(c2cc(F)ccc2Cl)c2c(NC(=O)N3CCC4(C3)CC4(F)F)cc(-c3ccc4ncnn4c3)cc21 (stereo not drawn) [Compound I-1722]	1 to 10
CC(=O)N1CCC[C@@H]1COc1cc(NC(=O)c2cc(F)cc(C(F)(F)F)c2)c2c(c1)C(=O)NC2c1cc(F)ccc1Cl (single isomer, unassigned) [Compound I-1467]	≤ 0.1
O=C(Nc1cc(Br)cc2c1C(c1cc(F)ccc1Cl)NC2=O)c1ccccc1Cl (stereo not drawn) [Compound I-477]	10 to 100
Cc1ccccc1C1NC(=O)c2nccc(NC(=O)N3CCc4ncccc43)c21 (stereo not drawn) [Compound I-199]	10 to 100

SMILES	IC50 [µM]
O=C(Nc1cc(NC2COC2)cc2c1C(c1cc(F)ccc1Cl)NC2=O)c1cc(F)cc(C(F)(F)F)c1 (stereo not drawn) [Compound I-613]	≤ 0.1
O=C1NC(c2cc(F)ccc2Cl)c2c1cc(-c1ccc3ncnn3c1)cc2N1CCn2ncnc2C1 (stereo not drawn) [Compound I-2018]	10 to 100
Cn1cc(-c2cc(NC(=O)c3cc(F)cc(C(F)(F)F)c3)c3c(c2)C(=O)N[C@@H]3c2cc(F)ccc2Cl)c(C#N)n1 [Compound I-1737]	10 to 100
Cc1ccccc1C1NC(=O)c2cccc(NC(=O)c3nsc4ccc(-c5cnn(C)c5)cc34)c21 (stereo not drawn) [Compound I-445]	1 to 10
O=C1N[C@@H](c2cc(F)ccc2Cl)c2c(NC(=O)[C@H]3C[C@H]3C(F)(F)F)cc(Br)cc21 (racemic) [Compound I-1853]	10 to 100
O=C(Nc1cc(OCC(O)CO)cc2c1C(c1cc(F)ccc1Cl)NC2=O)c1cc(F)cc(C(F)(F)F)c1 (stereo not drawn) [Compound I-1341]	≤ 0.1
O=C1NC(c2cc(F)ccc2Cl)c2c(NC(=O)N3CC4CC4(F)C3)cc(Br)cc21 (stereo not drawn) [Compound I-1954]	10 to 100
Cc1ccccc1C1NC(=O)c2c(C#N)ncc(NC(=O)c3cc(F)cc(C(F)(F)F)c3)c21 (stereo not drawn) [Compound I-236]	1 to 10
O=C1NC(c2cc(F)ccc2Cl)c2c(NC(=O)N3CCc4cc(Cl)ccc43)cc(Br)cc21 (stereo not drawn) [Compound I-1269]	1 to 10
O=C(Nc1cc(OCc2cccnc2)cc2c1C(c1cc(F)ccc1Cl)NC2=O)c1cc(F)cc(C(F)(F)F)c1 (stereo not drawn) [Compound I-1412]	≤ 0.1
CC(C)CC1NC(=O)c2cccc(NC(=O)c3cc(F)cc(C(F)(F)F)c3)c21 (stereo not drawn) [Compound I-442]	1 to 10
O=C1NC(c2cc(F)ccc2Cl)c2c(NC(=O)N3CCc4ccc(=O)[nH]c43)cc(Br)cc21 (stereo not drawn) [Compound I-1429]	10 to 100
CN1C(=O)CC[C@H]1COc1cc(NC(=O)c2cc(F)cc(C(F)(F)F)c2)c2c(c1)C(=O)N[C@@H]2c1cc(F)ccc1Cl (single isomer, unassigned) [Compound I-1568]	1 to 10
O=C1NC(c2cc(F)ccc2Cl)c2c(NC(=O)N3CCCC(F)(F)C3)cc(Br)cc21 (stereo not drawn) [Compound I-544]	1 to 10
O=C1NC(c2cc(F)ccc2Cl)c2c(Nc3ccn(CCO)n3)cc(-c3ccc4ncnn4c3)cc21 (stereo not drawn) [Compound I-1994]	10 to 100
Cc1ccccc1C1NC(=O)Oc2cccc(NC(=O)c3csc4ccccc34)c21 (stereo not drawn) [Compound I-294]	0.1 to 0.5
N#CC1(CNc2cc(NC(=O)c3cc(F)cc(C(F)(F)F)c3)c3c(c2)C(=O)NC3c2cc(F)ccc2Cl)CC1 (stereo not drawn) [Compound I-695]	≤ 0.1
C[C@H](CCC(F)(F)F)C(=O)Nc1cccc2c1[C@@H](c1cc(F)ccc1Cl)NC2=O [Compound I-2140]	10 to 100
COCc1cc(NC(=O)c2cc(F)cc(C(F)(F)F)c2)c2c(c1)C(=O)NC2c1cc(F)ccc1Cl (stereo not drawn) [Compound I-611]	≤ 0.1
N#Cc1cc(-c2cc(NC(=O)c3cc(F)cc(C(F)(F)F)c3)c3c(c2)C(=O)NC3c2cc(F)ccc2Cl)cn2ncnc12 (stereo not drawn) [Compound I-1822]	≤ 0.1
O=C(Nc1cc(Br)cc2c1C(c1cc(F)ccc1Cl)NC2=O)c1cc(F)ccc1C(F)F (stereo not drawn) [Compound I-837]	1 to 10

SMILES	IC50 [µM]
N#Cc1cnc2ccc(-c3cc(NC(=O)c4cc(F)cc(C(F)(F)F)c4)c4c(c3)C(=O)N[C@H]4c3cc(F)ccc3Cl)cn12 [Compound I-1443]	≤ 0.1
O=C(Nc1cc(Br)cc2c1C(c1c(F)cccc1Cl)NC2=O)c1cc(F)cc(C(F)(F)F)c1 (stereo not drawn) [Compound I-681]	1 to 10
O=C(Nc1cc(CC2COC2)cc2c1C(c1cc(F)ccc1Cl)NC2=O)c1cc(F)cc(C(F)(F)F)c1 (stereo not drawn) [Compound I-1279]	≤ 0.1
CC(C)(O)CN(CC(C)(C)O)c1cc(NC(=O)c2cc(F)cc(C(F)(F)F)c2)c2c(c1)C(=O)NC2c1cc(F)ccc1Cl (stereo not drawn) [Compound I-848]	1 to 10
CC1(C(=O)Nc2cc(Br)cc3c2C(c2cc(F)ccc2Cl)NC3=O)CCCC(C(F)(F)F)C1 (mixture of isomers) [Compound I-1358]	0.1 to 0.5
N#Cc1ncc(-c2cc(NC(=O)c3cc(F)cc(C(F)(F)F)c3)c3c(c2)C(=O)N[C@H]3c2cc(F)ccc2Cl)cn1 [Compound I-979]	0.1 to 0.5
O=C1N[C@@H](c2cc(F)ccc2Cl)c2c(NC(=O)[C@@H]3C[C@@H](O)C[C@H](C(F)(F)F)C3)cccc21 (single isomer, unassigned) [Compound I-2175]	10 to 100
O=C1NC(c2c(F)cccc2F)c2c(NC(=O)c3nsc4ccccc34)cccc21 (stereo not drawn) [Compound I-84]	1 to 10
Cc1ccccc1C1NC(=O)c2cccc(NC(=O)c3n[nH]cc3Br)c21 (stereo not drawn) [Compound I-411]	10 to 100
Cc1ccccc1C1NC(=O)c2cccc(NC(=O)c3coc4c(F)cc(F)cc34)c21 (stereo not drawn) [Compound I-58]	0.1 to 0.5
O=C(Nc1cc(C2COC2)cc2c1[C@H](c1cc(F)ccc1Cl)NC2=O)c1cc(F)cc(C(F)(F)F)c1 [Compound I-590]	≤ 0.1
O=C1N[C@@H](c2cc(F)ccc2Cl)c2c(NC(=O)N3C[C@H](O)c4cc(F)ccc43)cc(Cl)cc21 (single isomer, unassigned) [Compound I-2400]	0.1 to 0.5
O=C1NC(c2cc(F)ccc2Cl)c2c(NC(=O)C34CC5CC(CC(C5)C3)C4)cccc21 (stereo not drawn) [Compound I-876]	0.1 to 0.5
CC(C)(O)c1cc(NC(=O)c2cc(F)cc(C(F)(F)F)c2)c2c(c1)C(=O)NC2c1ccccc1C(F)F (stereo not drawn) [Compound I-355]	≤ 0.1
CC(C)(O)c1cc(NC(=O)c2cc(F)cc(C(F)(F)F)c2)c2c(c1)C(=O)N[C@@H]2c1cc(F)ccc1Cl [Compound I-190]	1 to 10
Nc1cc(NC(=O)c2cc(F)cc(C(F)(F)F)c2)cc2c1C(c1cc(F)ccc1C(F)F)NC2=O (stereo not drawn) [Compound I-269]	10 to 100
O=C(Nc1cc(Br)cc2c1C(c1cc(F)ccc1Cl)NC2=O)c1cc(F)cc(Cl)c1Cl (stereo not drawn) [Compound I-816]	0.1 to 0.5
COc1ccc(C(=O)Nc2cc(Br)cc3c2C(c2cc(F)ccc2Cl)NC3=O)cc1C(F)(F)F (stereo not drawn) [Compound I-877]	0.5 to 1
O=C(Nc1cc(CC(O)CCO)cc2c1C(c1cc(F)ccc1Cl)NC2=O)c1cc(F)cc(C(F)(F)F)c1 (stereo not drawn) [Compound I-1463]	≤ 0.1
O=C(Nc1cc(-c2ccn3cncc3c2)cc2c1C(c1cc(F)ccc1Cl)NC2=O)c1cc(F)cc(C(F)(F)F)c1 (stereo not drawn) [Compound I-1503]	≤ 0.1
Nc1cccc2c(=O)[nH]n(Cc3ccccc3)c12 [Compound I-103]	10 to 100
